SMILES strings stand for the structures. Like-named read-outs stand apart in the source and are kept apart here.

The target in series [1] is T1, Fatty Acid Amide Hydrolase (FAAH) (Rattus norvegicus, UniProt P97612).
T1 sequence (P97612 1-579): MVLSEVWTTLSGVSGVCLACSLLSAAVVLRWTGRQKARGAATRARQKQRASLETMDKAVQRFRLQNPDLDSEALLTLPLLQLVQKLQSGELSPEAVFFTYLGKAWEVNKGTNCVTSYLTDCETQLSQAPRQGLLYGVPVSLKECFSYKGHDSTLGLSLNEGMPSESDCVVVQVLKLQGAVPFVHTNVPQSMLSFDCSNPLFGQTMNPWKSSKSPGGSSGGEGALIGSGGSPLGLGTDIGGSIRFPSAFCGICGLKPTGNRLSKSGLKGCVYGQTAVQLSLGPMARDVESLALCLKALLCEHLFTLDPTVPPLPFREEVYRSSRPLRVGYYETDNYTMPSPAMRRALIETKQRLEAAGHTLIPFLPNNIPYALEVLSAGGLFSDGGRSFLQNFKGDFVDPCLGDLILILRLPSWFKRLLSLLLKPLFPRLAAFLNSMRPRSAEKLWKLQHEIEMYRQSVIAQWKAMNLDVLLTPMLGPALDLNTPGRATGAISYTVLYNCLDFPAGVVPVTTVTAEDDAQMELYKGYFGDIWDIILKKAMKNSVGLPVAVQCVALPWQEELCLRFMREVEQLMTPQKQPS
The series can be described thus: biochemical. How it is done:
Assay for Fatty Acid Amide Hydrolase (FAAH)
The effect of compounds on the enzymatic hydrolysis of [^14C]anandamide (6 μM) was studied using membranes prepared from rat brain incubated with increasing concentrations of compounds in 50 mM Tris-HCl, pH 9, for 30 minutes at 37° C. (Di Marzo et al., 2002). [^14C]ethanolamine produced from [^14C]anandamide hydrolysis was measured counting the scintillation of the aqueous phase after extraction of the incubation mixture with 2 volumes of CHCl3/CH3OH (2:1 by volume). […]

In series [2] the test system is Anandamide Membrane Transporter (AMT). Nature of the series: Anandamide uptake by RBL-2H3 cells. It is filed as cell-based. How it is done:
Assay for the Anandamide Membrane Transporter (AMT)
The effect of the compounds on the uptake of anandamide by the RBL-2H3 cells was studied as described (Di Marzo et al., 2002). Cells were incubated with [^14C]anandamide (4 μM) for 5 minutes at 37° C., in the presence or absence of varying concentrations of the inhibitors. Residual [^14C]anandamide in the incubation media after extraction with CHCl3/CH3OH (2:1 by volume) was used as a measure of the anandamide that was taken up by cells. Data are expressed as the concentration that produces 50% of inhibition of anandamide uptake (IC50) calculated with GraphPad.

In series [3] the target is T2, human recombinant CB1 receptor (Homo sapiens, UniProt P21554). It counts as binding. Also on record: purchased Perkin-Elmer; host or cells: COS cells.
T2 sequence (P21554 whole entry): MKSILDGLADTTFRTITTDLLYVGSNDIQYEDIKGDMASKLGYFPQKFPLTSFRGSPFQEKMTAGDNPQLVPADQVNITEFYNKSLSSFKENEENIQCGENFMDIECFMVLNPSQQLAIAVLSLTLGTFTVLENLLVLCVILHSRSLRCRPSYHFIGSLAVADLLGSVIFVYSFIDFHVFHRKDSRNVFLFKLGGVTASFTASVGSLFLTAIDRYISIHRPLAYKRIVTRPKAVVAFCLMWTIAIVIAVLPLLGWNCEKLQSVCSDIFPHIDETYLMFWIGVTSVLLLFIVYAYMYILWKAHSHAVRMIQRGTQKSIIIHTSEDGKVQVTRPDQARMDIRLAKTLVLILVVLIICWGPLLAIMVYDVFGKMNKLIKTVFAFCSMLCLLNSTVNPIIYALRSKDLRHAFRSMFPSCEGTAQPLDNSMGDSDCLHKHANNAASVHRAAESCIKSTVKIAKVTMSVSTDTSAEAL
For series [4], the target named is T3, human recombinant CB2 receptor (Homo sapiens, UniProt P34972). The series can be described thus: CB2 binding, [3H]CP55,940 displacement, membranes from transfected COS cells. Also on record: purchased Perkin-Elmer; host or cells: COS cells.
T3 sequence (P34972 whole entry): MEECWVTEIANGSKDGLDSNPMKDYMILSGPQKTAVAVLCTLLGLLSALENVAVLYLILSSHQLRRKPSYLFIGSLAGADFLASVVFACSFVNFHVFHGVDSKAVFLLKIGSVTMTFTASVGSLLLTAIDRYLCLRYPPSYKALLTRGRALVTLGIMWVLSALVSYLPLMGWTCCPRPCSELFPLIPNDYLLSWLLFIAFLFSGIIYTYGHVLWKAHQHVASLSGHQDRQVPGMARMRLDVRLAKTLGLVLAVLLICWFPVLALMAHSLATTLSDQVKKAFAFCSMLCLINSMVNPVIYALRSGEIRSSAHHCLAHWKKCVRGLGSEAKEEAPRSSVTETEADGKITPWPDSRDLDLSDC
The target of a further series is T4, CB1 (Rattus norvegicus, UniProt P20272).
T4 construct: from tissue; host or cells: rat brain membranes
T4 sequence (P20272 whole entry): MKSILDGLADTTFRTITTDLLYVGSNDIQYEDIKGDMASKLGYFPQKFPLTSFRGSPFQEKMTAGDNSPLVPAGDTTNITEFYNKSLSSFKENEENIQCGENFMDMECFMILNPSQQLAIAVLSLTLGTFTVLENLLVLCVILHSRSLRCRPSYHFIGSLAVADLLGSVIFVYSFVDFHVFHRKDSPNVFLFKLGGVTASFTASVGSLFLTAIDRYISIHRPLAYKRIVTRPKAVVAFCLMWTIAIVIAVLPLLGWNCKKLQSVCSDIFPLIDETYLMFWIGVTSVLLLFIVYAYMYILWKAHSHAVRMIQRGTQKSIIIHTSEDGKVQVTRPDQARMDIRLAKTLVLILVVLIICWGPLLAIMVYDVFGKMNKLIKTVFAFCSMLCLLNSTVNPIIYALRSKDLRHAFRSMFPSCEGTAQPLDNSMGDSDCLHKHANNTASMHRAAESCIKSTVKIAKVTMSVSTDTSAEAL
Nature of the series: Preliminary selection with rat brain membranes. It counts as binding. Conditions: rat brain and spleen membranes, read-out: CB1 (n.a. class, IC50 in preliminary selection).

A further series concerns the target T5, CB2 (Rattus norvegicus, UniProt Q9QZN9).
T5 construct: from tissue; host or cells: rat spleen membranes
T5 sequence (Q9QZN9 1-360): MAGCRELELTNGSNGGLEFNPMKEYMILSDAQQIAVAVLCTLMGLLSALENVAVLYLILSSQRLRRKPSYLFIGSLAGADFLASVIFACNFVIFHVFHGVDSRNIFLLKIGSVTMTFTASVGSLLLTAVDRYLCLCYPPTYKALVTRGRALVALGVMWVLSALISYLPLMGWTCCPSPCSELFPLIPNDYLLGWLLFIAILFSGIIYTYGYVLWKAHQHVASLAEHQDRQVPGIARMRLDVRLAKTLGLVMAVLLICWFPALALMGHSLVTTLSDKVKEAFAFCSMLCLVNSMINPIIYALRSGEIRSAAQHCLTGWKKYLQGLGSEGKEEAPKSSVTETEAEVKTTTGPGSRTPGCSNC
The series can be described thus: Preliminary selection with rat spleen membranes. It is filed as binding. Conditions: rat brain and spleen membranes, read-out: CB2 (n.a. class, IC50 in preliminary selection).

For series [5], the target named is T6, CB1 cannabinoid receptors (Mus musculus, UniProt P47746).
T6 construct: N18TG2 mouse neuroblastoma cells, which constitutively and selectively express the CB 1 cannabinoid receptors; endogenous in cells; host or cells: N18TG2 mouse neuroblastoma cells
T6 sequence (P47746 whole entry): as the sequence (P20272 whole entry) above, with E95D counted along it
The series can be described thus: Forskolin-induced cyclic AMP in N18TG2 neuroblastoma cells. The note with it: N18TG2 cells. It is filed as cell-based. How it is done: (§1) After incubation, 800 μl of methanol were added, cells were extracted and cyclic AMP was determined with a cyclic AMP assay kit (Amersham, UK), in accordance with the supplier's recommendations.

The target of the next series is T7, CB1 receptors (Mus musculus, UniProt P47746).
T7 construct: using mouse brain membranes containing CB1 receptors; from tissue; host or cells: mouse brain membranes
T7 sequence (P47746 whole entry): as the sequence (P20272 whole entry) above, with E95D counted along it
The series can be described thus: [35S]GTP-γ-S binding, mouse brain membranes. It counts as biochemical. As for the experimental part: These assays were performed as previously described (Thomas et al., 2005), using mouse brain membranes containing CB1 receptors or CHO cells stably over-expressing the human recombinant CB2 receptor (10 μg/ml protein), 0.7 nM [^35S]GTP-γ-S and 320 μM GDP, and a final assay volume of 250 μl. Results were compared to the potent CB1 and CB2 receptor agonist CP55940, purchased from Cayman Chemicals, Ann Arbour, Mich., USA.

For series [6], the target named is T2, human recombinant CB1 receptor. The series can be described thus: Forskolin-induced cAMP formation in CHO cells over-expressing hCB1. The note with it: read-out: hCB1 EC50. It counts as cell-based. Also on record: expressed in transfected cells; host or cells: CHO cells. How it is done:
as §1

Series [7] concerns the target T3, human recombinant CB2 receptor. The series can be described thus: Forskolin-induced cAMP formation in CHO cells over-expressing hCB2. It counts as cell-based. On the set-up: expressed in transfected cells; host or cells: CHO cells (stably over-expressing). Conditions: CHO hCB2. As for the experimental part: as §1
Series [8] has the same target. The series can be described thus: [35S]GTP-γ-S binding, CHO cells over-expressing hCB2. It counts as biochemical. Also on record: expressed in transfected cells; host or cells: CHO cells (stably over-expressing). An excerpt:
Results were compared to the potent CB1 and CB2 receptor agonist CP55940, purchased from Cayman Chemicals, Ann Arbour, Mich., USA.

The mark [9] stands for this setting: anandamide uptake, read-out: AMT IC50.
Where [10] appears, read: recombinant human CB1, COS cell membranes.
Where [11] appears, read: recombinant human CB2, COS cell membranes.
Setting [12] is: rat brain membranes, read-out: FAAH (n.a. class).
[13] abbreviates: rat brain membranes, [14C]anandamide 6 μM, read-out: FAAH IC50.

`CCCCCc1cc(O)cc(OCCCCCCCCCCC(=O)NCCO)c1` [Compound 24, 11-(3-Hydroxy-5-pentyl-phenoxy)-undecanoic acid (2-hydroxy-ethyl)-amide]: the melting point lay within 55 to 56 °C. The same compound showed an IC50 in [1] above 10 µM. For the same compound, the IC50 in [2] (setting [9]) is 25 µM. Also, the Ki in series [3] (setting [10]) stood at 800 nM. In addition, the inhibition constant Ki in series [4] (setting [11]) was found to be 160 nM.
Turning to `CCCCCCc1ccc(OCCCCCCCCCCCCCCCC(=O)NCCO)cc1O` [Compound 45, 16-(3-Hydroxy-4-hexyl-phenoxy)-hexadecanoic acid (2-hydroxy-ethyl)-amide], the melting point was determined as 96.4 °C. Further, on CB1, the IC50 is above 10 µM. Moreover, at CB2, the IC50 was above 10 µM.
Compound `CCCCCCc1ccc(OCCCCCC(=O)NC2CC2)cc1O` [Compound 40, 6-(3-Hydroxy-4-hexyl-phenoxy)-hexanoic acid cyclopropylamide] registered a melting point of 134.2 °C. In addition, the IC50 in series [1] (setting [12]) was above 10 µM. Also, the “functional behaviour at CB1 receptors” value in series [5] (cAMP) was “inverse agonist/antagonist”. Also, in series [5] (forskolin 1 μM, read-out: half-maximum effect concentration, stimulation of forskolin-induced cAMP formation), the EC50 worked out at 0.15 µM. The inhibition constant Ki in series [3] (setting [10]) was found to be 180 nM. Also, the Ki in series [4] (setting [11]) came out at 540 nM.
`CCCCCCc1ccc(O)cc1OCCCCCCCCCCCCCCCC(=O)NCCO` [Compound 54, 16-(2-Hexyl-5-hydroxy-phenoxy)-hexadecanoic acid (2-hydroxy-ethyl)-amide] showed a melting point of 77.2 °C. The IC50 on CB1 is above 10 µM. Further, the IC50 at CB2 was above 10 µM.
For the compound `CCCCCCc1ccc(OCCCCCCCCCCC(=O)Nc2ccc(O)cc2)cc1O` [Compound 44, 11-(3-Hydroxy-4-hexyl-phenoxy)-undecanoic acid (4-hydroxy-phenyl)-amide], the melting point was 121.2 °C. Besides, the IC50 in series [1] (setting [13]) was 50 µM. Moreover, the IC50 in series [2] (setting [9]) was above 25 µM. Moreover, the IC50 at CB1 was above 10 µM.
Regarding `CCCCCCc1ccc(OCCCCCCCCCCCCCCCC(=O)NC2CC2)cc1O` [Compound 46, 16-(3-Hydroxy-4-hexyl-phenoxy)-hexadecanoic acid cyclopropylamide], the melting point was 114.3 °C. In addition, at CB1, the IC50 was above 10 µM. At CB2, the IC50 is above 10 µM.
Consider `CCCCCCc1ccc(O)cc1OCCCCCCCCCCC(=O)NCCO` [Compound 51, 11-(2-Hexyl-5-hydroxy-phenoxy)-undecanoic acid (2-hydroxy-ethyl)-amide], for which the melting point is 75.4 °C. In series [1], this compound gave an IC50 above 10 µM. Further, the IC50 in series [2] (setting [9]) is above 25 µM. Besides, the Ki in [4] (setting [11]) is 420 nM.
With `CCCCCCc1ccc(O)cc1OCCCCCCCCCCC(=O)NC1CC1` [Compound 52, 11-(2-Hexyl-5-hydroxy-phenoxy)-undecanoic acid cyclopropylamide], the values for the IC50 (in [2] (setting [9]); at CB1 receptors) were 13 µM and 0.1 µM, respectively. In addition, the “functional behaviour in GTP-γ-S-binding” value on CB1 receptors (mouse brain membranes) was “agonist action”. The results for the inhibitory constant (Ki) in series [3] (values in nM) and in [4] (values in nM) were 210 nM and 30 nM, respectively. The EC50 was 2.4 µM in series [6] and above 10 µM in series [7] (forskolin-induced cAMP formation, read-out: hCB2 EC50). In series [7] (10 μM, forskolin-induced cAMP formation), the “hCB2 % effect with 10 μM” value stood at 5%. In series [7], the “effect on forskolin-induced cAMP formation (in words)” value was “no significant effect”. For the same compound, in series [8] (CHO hCB2), the “antagonism of CP55940-induced stimulation of GTP-γ-S binding (in words)” value is given as “block the effect of CP55940”. The “effect on GTP-γ-S-binding (in words)” value in series [8] (CHO hCB2) is “no significant stimulation or inhibition”. Also, the “functional behaviour at CB2 receptors” value in series [8] (Test 1 and Test 2, CHO hCB2) is reported as “neutral (“silent”) antagonists”.
Take `CCCCCc1cc(O)cc(OCCCCCCCCCCC(=O)Nc2ccc(O)cc2)c1` [Compound 26, 11-(3-Hydroxy-5-pentyl-phenoxy)-undecanoic acid (4-hydroxy-phenyl)-amide]: the IC50 in series [1] and in series [2] (read-out: AMT (n.a. class)) was above 10 µM throughout. In addition, the inhibition constant (Ki) in series [3] (setting [10]) was 3000 nM; in [4] (setting [11]), 1400 nM.
With `CCCCCCc1ccc(OCCCCCCCCCCC(=O)NCCO)cc1O` [Compound 42, 11-(3-Hydroxy-4-hexyl-phenoxy)-undecanoic acid (2-hydroxy-ethyl)-amide], the melting point was determined as 85.3 °C. Moreover, in series [1] (setting [12]), the IC50 is above 10 µM. The IC50 in series [2] (read-out: AMT (n.a. class)) was above 10 µM. Also, the inhibition constant (Ki) in series [4] (setting [11]) amounted to 2700 nM.
`O=C(CCCCCCCCCCOc1cccc(O)c1)Nc1ccc(O)cc1` [Compound 35, 11-(3-Hydroxy-phenoxy)-undecanoic acid (4-hydroxy-phenyl)-amide] yielded a melting point of 121.2 °C. Besides, the IC50 at CB1 is above 10 µM.
Turning to `CCCCCCc1ccc(O)cc1OCCCCCCCCCCC(=O)Nc1ccc(O)cc1` [Compound 53, 11-(2-Hexyl-5-hydroxy-phenoxy)-undecanoic acid (4-hydroxy-phenyl)-amide], the melting point turned out to be 108.7 °C. Further, the IC50 in [1] (setting [13]) came out at 18 µM. Besides, the IC50 in series [2] (setting [9]) was above 25 µM. Moreover, in [3], the Ki was found to be 3300 nM. Besides, in series [4] (setting [11]), the inhibition constant Ki stood at 2110 nM.

Source of the values: patent publication US20090043129A1 (priority 2005, published 2009).
